# Experimental data from patent US11751586B2, “Compositions and methods for improving taste of non-nutritive sweeteners” (PEPSICO, INC., priority 2016, dated 2023).
# Entries after “also recorded” stand apart in the source; their conditions may differ.
# Experiments:
# [1] = compared with other steviol glycosides; cited from earlier work
# [2] = compared with Rebaudioside A; cited from earlier work
# [3] = target: T1, sweet taste receptors T1R2/T1R3 (Homo sapiens, UniProt Q7RTX0+Q8TE23); assay: Taste receptor internalization assay (Ring Assay), sweet; format: cell-based; settings: for EC50 value, sweet receptor dose response: combined with the stevia blend 4, Example 15; for slope of the dose response curve: with the stevia 4 blend, individual compound vs the combination of compounds 1 and 10, FIGS. 51, 52, 55
# T1 construct: receptor internalization assay (“Ring Assay”) on an H716 cell line; endogenous in cells; host or cells: H716 cell line
# T1 sequence (Q8TE23 20-839): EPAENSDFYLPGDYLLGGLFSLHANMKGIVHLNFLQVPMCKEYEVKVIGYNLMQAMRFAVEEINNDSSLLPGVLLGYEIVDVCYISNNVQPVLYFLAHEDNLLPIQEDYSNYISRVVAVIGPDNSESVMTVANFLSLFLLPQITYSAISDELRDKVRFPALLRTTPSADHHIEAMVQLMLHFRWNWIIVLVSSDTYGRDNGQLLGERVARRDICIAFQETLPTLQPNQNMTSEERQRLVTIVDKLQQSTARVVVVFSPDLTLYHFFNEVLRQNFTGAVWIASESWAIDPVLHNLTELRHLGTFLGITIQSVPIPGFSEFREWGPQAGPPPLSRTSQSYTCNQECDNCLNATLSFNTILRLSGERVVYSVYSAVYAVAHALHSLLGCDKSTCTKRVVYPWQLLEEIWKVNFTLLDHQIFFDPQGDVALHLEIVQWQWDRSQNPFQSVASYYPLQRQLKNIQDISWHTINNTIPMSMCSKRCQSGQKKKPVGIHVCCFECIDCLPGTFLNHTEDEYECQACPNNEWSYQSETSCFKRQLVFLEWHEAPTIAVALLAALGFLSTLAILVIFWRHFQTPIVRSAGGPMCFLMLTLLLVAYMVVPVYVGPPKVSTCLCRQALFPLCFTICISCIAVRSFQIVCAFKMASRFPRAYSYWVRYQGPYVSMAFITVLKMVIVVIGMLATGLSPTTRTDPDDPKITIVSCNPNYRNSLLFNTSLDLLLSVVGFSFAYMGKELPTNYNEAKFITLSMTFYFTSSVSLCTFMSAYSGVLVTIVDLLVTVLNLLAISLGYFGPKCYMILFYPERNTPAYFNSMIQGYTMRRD
# T1 sequence (Q7RTX0 21-852): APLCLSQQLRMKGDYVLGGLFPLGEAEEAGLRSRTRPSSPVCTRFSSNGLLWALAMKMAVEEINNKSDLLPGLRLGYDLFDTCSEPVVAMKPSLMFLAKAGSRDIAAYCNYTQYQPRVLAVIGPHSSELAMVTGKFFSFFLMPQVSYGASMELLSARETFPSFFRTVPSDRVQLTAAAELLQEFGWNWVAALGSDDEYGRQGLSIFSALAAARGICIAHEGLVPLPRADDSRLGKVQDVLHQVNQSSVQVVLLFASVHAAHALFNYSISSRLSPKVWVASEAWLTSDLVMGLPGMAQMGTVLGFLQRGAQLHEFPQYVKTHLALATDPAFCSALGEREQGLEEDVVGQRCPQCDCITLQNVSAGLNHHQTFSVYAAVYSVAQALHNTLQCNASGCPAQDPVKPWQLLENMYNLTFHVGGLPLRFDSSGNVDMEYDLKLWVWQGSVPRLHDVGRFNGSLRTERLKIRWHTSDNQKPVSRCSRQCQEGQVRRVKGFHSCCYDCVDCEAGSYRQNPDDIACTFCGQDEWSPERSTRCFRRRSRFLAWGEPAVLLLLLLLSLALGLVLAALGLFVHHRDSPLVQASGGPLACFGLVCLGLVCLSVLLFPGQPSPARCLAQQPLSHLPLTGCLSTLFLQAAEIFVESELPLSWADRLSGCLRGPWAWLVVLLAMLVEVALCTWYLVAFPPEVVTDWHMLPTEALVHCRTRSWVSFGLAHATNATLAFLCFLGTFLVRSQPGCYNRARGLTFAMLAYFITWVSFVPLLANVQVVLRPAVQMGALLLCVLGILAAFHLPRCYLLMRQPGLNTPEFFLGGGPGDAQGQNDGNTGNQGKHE
# Description: (§1) The control samples and samples I-X were tested for their ability to activate sweet taste receptors T1R2/T1R3, GLUT4, and Glucagon and bitter taste receptors T2R using a taste receptor internalization assay. Receptor activation and internalization was measured using images acquired by an IMAGEXPRESS Micro automated epifluorescence microscope (Molecular Devices Corporation). The images were analyzed with METAXPRESS 5.1 Workstation software, utilizing the Multiwaves Translocation Scoring analysis algorithm for nuclear and cytoplasmic segmentation. Curve fitting and parameter estimation were then analyzed with TIBCO SPOTFIRE.
# (§2) Taste Receptor Internalization General Procedure:
# The two control samples and Samples I-X were each serially diluted eight times at a ratio of […] in water (1 part sample to 2 parts water) and dose response was determined by conducting a receptor internalization assay (“Ring Assay”) on an H716 cell line with an HCI platform using the methods disclosed in PCT Patent Application Publication No. WO 2014/183041. Receptor internalization was measured at 5 and 15 minutes. EC50 values and Maximum-Minimum (“Max-Min”) values were calculated using SPOTFIRE software. Sweet, aftertaste, glucagon, and bitterness scoring were calculated using analysis of variance (ANOVA). A median value was then calculated by dividing the Max-Min value by the EC50 value for all time points. The median values, which represent receptor activity, were then plotted on radar graphs, as shown in FIGS. 9A-9B, 10A-10B, 11A-11B, 12A-12B, 13, 14A-14B, 15A-15B, 16A-16B, 17A-17B, 18A-18B, and 19.
# Several sets of aqueous samples were prepared to study the dose response for the sweet taste receptors. One set of samples was prepared by adding the stevia blend 4 (1.3 wt % rebaudioside D and 6.7 wt % SG95) to water and adding 0.32 wt % potassium sorbate. Malic acid was added to the solution until the pH was 3.5. Eleven sets of aqueous samples were prepared by separately combining the same stevia 4 blend with either 2-methylbutanol or one of the compounds listed in Table 4. Another set of samples was prepared by adding sugar to water. Four additional sets of aqueous samples were prepared by separately combining each of the stevia blend 4, above, and sugar with either compounds 1 and 10 or compounds 2, 6, and 10 from Table 4. One final set of aqueous samples was prepared by combining the stevia blend 4, above, with compounds 1, 2, 3, and 10 from Table 4. Each set of samples were serially diluted and had concentrations ranging from about 0.001 nM to about 100 μM.
# The aqueous samples were tested at varying concentrations for their ability to activate the sweet taste receptors in accordance with the procedures described in Example 8. Dose response curves were generated for the stevia 4 blend, sugar, and each compound-stevia 4 blend combination.
# Glucagon = assay: Taste receptor internalization assay (Ring Assay), glucagon; format: cell-based; settings: added to 8% stevia blend 3 base solution; compared to the sample with compound 2
# Description: as §1, §2
# (§3) The two control samples and Samples I-X were each serially diluted eight times at a ratio of 1:1 in water (1 part sample to 2 parts water) and dose response was determined by conducting a receptor internalization assay (“Ring Assay”) on an H716 cell line with an HCI platform using the methods disclosed in PCT Patent Application Publication No. WO 2014/183041. Receptor internalization was measured at 5 and 15 minutes. EC50 values and Maximum-Minimum (“Max-Min”) values were calculated using SPOTFIRE software. Sweet, aftertaste, glucagon, and bitterness scoring were calculated using analysis of variance (ANOVA). A median value was then calculated by dividing the Max-Min value by the EC50 value for all time points. […]
# [4] = test system: bitter taste receptors T2R; assay: Taste receptor internalization assay (Ring Assay), bitter; format: cell-based
# Description: as §1, §2, §3
# [5] = test system: sweet taste receptors T1R2/T1R3, GLUT4, and Glucagon and bitter taste receptors T2R; assay: Taste receptor internalization assay, overall receptor response profile; format: cell-based; settings: Sample X vs Sample IX; FIG. 10A
# Description: as §1, §2, §3
# [6] = added to 0.2% stevia blend 3 base solution, Example 11
# [7] = added to 8 wt % stevia blend 3 base solution, Examples 10 and 11
smiles,measurement,setting,value
C=C1C[C@@]23CC[C@H]4[C@@](C)(CCC[C@@]4(C)C(=O)O[C@@H]4O[C@H](CO)[C@@H](O)[C@H](O)[C@H]4O[C@@H]4O[C@H](CO)[C@@H](O)[C@H](O)[C@H]4O)[C@@H]2CC[C@]1(O[C@@H]1O[C@H](CO)[C@@H](O)[C@H](O[C@@H]2O[C@H](CO)[C@@H](O)[C@H](O)[C@H]2O)[C@H]1O[C@@H]1O[C@H](CO)[C@@H](O)[C@H](O)[C@H]1O)C3 [Rebaudioside D],taste profile,[1],almost lacking the bitterness and lingering licorice aftertaste
same,water solubility,[2],less water soluble than Rebaudioside A
CCC(C)CO (centres unmarked) [2-methylbutanol],sweet receptor response,[3]; [6],high sweet
same,sweetness (sweet receptor) response,[3]; [7],low sweet; also recorded: significantly lower
same,glucagon receptor response,Glucagon,significantly lower
same,bitterness receptor response,[4]; [6],high sweet and bitterness
same,bitterness receptor response,[4]; [7],no bitterness
"CCCC[C@@H]1OC(=O)C[C@H]1C (relative stereo) [Compound 10, Trans-4-Methyl-5-butyldihydro-2(3H)-furanone]","EC50 value, sweet receptor dose response",[3],smaller
same,slope of the dose response curve,[3],smaller
"CCCCOC(C)=O [Compound 1, Butyl Acetate]","EC50 value, sweet receptor dose response",[3],smaller
same,slope of the dose response curve,[3],smaller
"CC(C)CCO [Compound 2, 3-Methylbutanol]","EC50 value, sweet receptor dose response",[3],low
same,taste modulator classification,"[3]; for the stevia 4 blend, FIG. 57",sweet enhancer
same,effect on the taste profile of stevia,[5],sweet/glucagon enhancer
